{
  "source": "patent US20260234125A1",
  "about": "“CYCLIC AMINE DERIVATIVE, AND COMPOSITION AND USE THEREOF” (SHANGHAI JINGXIN BIOMEDICAL CO., LTD., priority 2023, published 2026)",
  "key": {"[1]": {"system": "Salmonella typhimurium TA102", "test": "Salmonella typhimurium reverse mutation test, TA102", "format": "cell-based", "parameters": "key: + indicates a positive mutagenic result; − indicates a negative mutagenic result", "experimental": "(§1) The revived strains or a single colony from the master plate were inoculated into the broth, and cultured in a thermostat gas bath vibrator at 100 to 120 rpm and 37±1° C. for 10 to 16 hours, marked and stored for later use. The bottom agar medium (containing an appropriate amount of agar, Vogel-Bonner buffer, 20% glucose solution and 20% magnesium sulfate solution) was poured into a six-well plate, approximately […] into each well, and allowed to cool and solidify naturally, marked each well and stored for later use.\n(§2) Three wells were set up in each group for parallel experiments. The top agar medium was sterilized under high pressure and kept warm at about 65° C. In each test tube, 0.1 mL of negative control (DMSO) or positive control or test sample, 0.1 mL of bacterial solution suspension, 0.5 mL of phosphate buffer (0.2M PBS) (−S9) or 0.5 mL of S9 mixed solution (+S9) and 2.5 mL top culture medium were added, after vortex mixing, and then quickly and evenly spread on the culture dish which was already spreaded with the bottom agar medium. After natural cooling and solidification, the culture dish was inverted and placed in a 37° C. incubator for 48 to 72 hours. After culturing for 48 to 72 hours, the culture dish was taken out, and the number of revertant colonies in each well was counted, the growth background was observed under a microscope to determine whether there was antibacterial or bactericidal activity, and the experimental results were recorded."}, "[2]": {"test": "Bioavailability determination in cynomolgus monkeys", "format": "in vivo", "conditions": "cynomolgus monkey, plasma, 1 mg/kg intravenous and 7.5 mg/kg oral gavage, read-out: bioavailability F", "experimental": "• 1. Experimental purpose: The purpose of this test is to test the bioavailability of the compound in cynomolgus monkeys • 2. Experimental methods: The cynomolgus monkeys were housed with a standard light cycle (12 hours light/12 hours dark), at a room temperature of 18-26° C. and a relative humidity of 40-70%, with free access to water and normal diet. Five days prior to the study, the cynomolgus monkeys were randomly assigned to an intravenous administration group and an oral administration group (n=2/group) on their body weight for the study. The administration volume was calculated according to the body weight of the animals on the day of administration, and the administration volume was 2 mL/kg, the single intravenous administration was performed at a dose of 1 mg/kg, and the solvent was 5% DMSO, 5% Solutol, and 90% Saline. Blood was collected from the forelimb vein or other suitable veins at 0.083 h, 0.25 h, 0.5 h, 1 h, 2 h, 4 h, 6 h, 8 h, 12 h, 24 h, 48 h and 72 h after administration. The administration volume was calculated according to the weight of the animals on the day of administration, and the administration volume was 5 mL/kg, the single oral gavage administration was performed at a dose of 7.5 mg/kg, and the solvent was 1% HEC and 0.25% Tween 80 in Water. […]"}, "[3]": {"system": "Salmonella typhimurium TA1537", "test": "Salmonella typhimurium reverse mutation test, TA1537", "format": "cell-based", "parameters": "key: + indicates a positive mutagenic result; − indicates a negative mutagenic result", "experimental": "as §1, §2"}, "[4]": {"system": "Salmonella typhimurium TA100", "test": "Salmonella typhimurium reverse mutation test, TA100", "format": "cell-based", "parameters": "key: + indicates a positive mutagenic result; − indicates a negative mutagenic result", "experimental": "as §1, §2"}, "hERG potassium channel": {"molecular_target": "T1, hERG potassium channel (Homo sapiens, UniProt Q12809)", "T1 construct": "expressed in transfected cells; host or cells: HEK-293-hERG cells", "T1 sequence (Q12809 whole entry)": "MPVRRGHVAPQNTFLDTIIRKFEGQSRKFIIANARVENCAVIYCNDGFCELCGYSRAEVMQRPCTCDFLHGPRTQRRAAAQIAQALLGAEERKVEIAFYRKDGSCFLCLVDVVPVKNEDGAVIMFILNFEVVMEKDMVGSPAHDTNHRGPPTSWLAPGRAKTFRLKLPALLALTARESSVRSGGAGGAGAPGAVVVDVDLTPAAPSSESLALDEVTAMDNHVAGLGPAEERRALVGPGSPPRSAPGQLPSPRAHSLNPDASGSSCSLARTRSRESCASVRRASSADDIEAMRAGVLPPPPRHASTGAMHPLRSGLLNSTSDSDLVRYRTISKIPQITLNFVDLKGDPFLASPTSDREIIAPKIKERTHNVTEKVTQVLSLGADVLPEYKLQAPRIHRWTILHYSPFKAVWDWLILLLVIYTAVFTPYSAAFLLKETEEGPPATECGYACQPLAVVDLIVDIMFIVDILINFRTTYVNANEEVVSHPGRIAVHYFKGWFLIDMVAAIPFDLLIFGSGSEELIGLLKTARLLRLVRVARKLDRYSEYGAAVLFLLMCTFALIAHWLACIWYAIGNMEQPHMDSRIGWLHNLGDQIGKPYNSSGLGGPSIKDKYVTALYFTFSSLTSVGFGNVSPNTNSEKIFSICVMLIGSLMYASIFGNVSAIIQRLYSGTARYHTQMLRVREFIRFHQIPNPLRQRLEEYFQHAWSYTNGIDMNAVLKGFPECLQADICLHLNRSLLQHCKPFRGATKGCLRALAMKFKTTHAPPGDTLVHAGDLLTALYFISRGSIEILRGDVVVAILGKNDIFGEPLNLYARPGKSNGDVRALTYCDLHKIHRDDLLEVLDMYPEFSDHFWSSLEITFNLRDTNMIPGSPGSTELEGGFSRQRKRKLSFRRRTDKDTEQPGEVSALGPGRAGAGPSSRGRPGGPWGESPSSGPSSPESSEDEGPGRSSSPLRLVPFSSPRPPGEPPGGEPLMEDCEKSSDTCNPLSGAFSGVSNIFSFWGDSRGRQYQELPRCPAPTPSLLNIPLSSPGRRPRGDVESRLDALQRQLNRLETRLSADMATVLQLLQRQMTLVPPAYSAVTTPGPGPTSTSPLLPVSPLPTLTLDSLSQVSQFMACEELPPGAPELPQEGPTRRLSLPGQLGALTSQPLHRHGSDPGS", "test": "hERG whole-cell patch clamp experiment", "format": "cell-based", "conditions": "HEK-293 cells that express hERG, HEK-293-hERG cell, read-out: inhibition rate", "experimental": "• 1. Experimental purpose: The purpose of this test is to test the inhibition rate of the compounds on the hERG potassium channel • 2. Experimental methods: The hERG current was recorded using the whole-cell patch clamp technique. A suspension of HEK-293-hERG cell was added to a small culture dish and placed on an inverted microscope stage. After the cells adhered to the dish, extracellular fluid was perfused at a flow rate of 1-2 mL/minute. The glass microelectrode was pulled in two steps by a microelectrode puller, after the electrode was filled with internal fluid, its water resistance was 2-5 MΩ. After establishing the whole-cell recording mode, the holding potential was maintained at −80 mV. A depolarizing voltage to +60 mV was applied for 850 ms, and then followed by repolarization to −50 mV for 1275 ms to elicit the hERG tail current. This set of pulse programs was repeated every 15 seconds throughout the experiment. After the current stabilized, the test compound was administered via continuous extracellular perfusion from low concentration to high concentration. Starting from a low concentration, perfusion was continued until the drug effect was stable, and then the next concentration was perfused."}},
  "data": [
    {"smiles": "O=C(O)[C@@H](Cc1cccc(CN(Cc2cccc(C[C@H](C(=O)O)[C@H]3CCNC3)c2)Cc2cccc(C[C@H](C(=O)O)[C@H]3CCNC3)c2)c1)[C@H]1CCNC1", "note": "[Comparative Example 1, reference compound]", "values": [
      {"measurement": "mutagenicity", "setting": "[1]; TA102, +S9, 62 μg/dish", "result": "−"},
      {"measurement": "mutagenicity", "setting": "[1]; TA102, +S9, 185 μg/dish", "result": "−"},
      {"measurement": "mutagenicity", "setting": "[1]; TA102, +S9, 556 μg/dish", "result": "−"},
      {"measurement": "mutagenicity", "setting": "[1]; TA102, +S9, 1667 μg/dish", "result": "−"},
      {"measurement": "mutagenicity", "setting": "[1]; TA102, +S9, 5000 μg/dish", "result": "−"},
      {"measurement": "mutagenicity", "setting": "[1]; TA102, −S9, 62 μg/dish", "result": "−"},
      {"measurement": "mutagenicity", "setting": "[1]; TA102, −S9, 185 μg/dish", "result": "−"},
      {"measurement": "mutagenicity", "setting": "[1]; TA102, −S9, 556 μg/dish", "result": "−"},
      {"measurement": "mutagenicity", "setting": "[1]; TA102, −S9, 1667 μg/dish", "result": "−"},
      {"measurement": "mutagenicity", "setting": "[1]; TA102, −S9, 5000 μg/dish", "result": "−"},
      {"measurement": "bioavailability", "setting": "[2]", "result": 10.2, "unit": "%"},
      {"measurement": "mutagenicity", "setting": "[3]; TA1537, +S9, 62 μg/dish", "result": "−"},
      {"measurement": "mutagenicity", "setting": "[3]; TA1537, +S9, 185 μg/dish", "result": "−"},
      {"measurement": "mutagenicity", "setting": "[3]; TA1537, +S9, 556 μg/dish", "result": "−"},
      {"measurement": "mutagenicity", "setting": "[3]; TA1537, +S9, 1667 μg/dish", "result": "−"},
      {"measurement": "mutagenicity", "setting": "[3]; TA1537, +S9, 5000 μg/dish", "result": "−"},
      {"measurement": "mutagenicity", "setting": "[3]; TA1537, −S9, 62 μg/dish", "result": "−"},
      {"measurement": "mutagenicity", "setting": "[3]; TA1537, −S9, 185 μg/dish", "result": "−"},
      {"measurement": "mutagenicity", "setting": "[3]; TA1537, −S9, 556 μg/dish", "result": "−"},
      {"measurement": "mutagenicity", "setting": "[3]; TA1537, −S9, 1667 μg/dish", "result": "−"},
      {"measurement": "mutagenicity", "setting": "[3]; TA1537, −S9, 5000 μg/dish", "result": "−"},
      {"measurement": "mutagenicity", "setting": "[4]; TA100, +S9, 62 μg/dish", "result": "−"},
      {"measurement": "mutagenicity", "setting": "[4]; TA100, +S9, 185 μg/dish", "result": "−"},
      {"measurement": "mutagenicity", "setting": "[4]; TA100, +S9, 556 μg/dish", "result": "−"},
      {"measurement": "mutagenicity", "setting": "[4]; TA100, +S9, 1667 μg/dish", "result": "−"},
      {"measurement": "mutagenicity", "setting": "[4]; TA100, +S9, 5000 μg/dish", "result": "−"},
      {"measurement": "mutagenicity", "setting": "[4]; TA100, −S9, 62 μg/dish", "result": "−"},
      {"measurement": "mutagenicity", "setting": "[4]; TA100, −S9, 185 μg/dish", "result": "−"},
      {"measurement": "mutagenicity", "setting": "[4]; TA100, −S9, 556 μg/dish", "result": "−"},
      {"measurement": "mutagenicity", "setting": "[4]; TA100, −S9, 1667 μg/dish", "result": "−"},
      {"measurement": "mutagenicity", "setting": "[4]; TA100, −S9, 5000 μg/dish", "result": "−"},
      {"measurement": "inhibition at 0.3 µM", "setting": "hERG potassium channel", "result": 7.37, "unit": "%"},
      {"measurement": "inhibition at 1 µM", "setting": "hERG potassium channel", "result": 24.6, "unit": "%"},
      {"measurement": "inhibition at 3 µM", "setting": "hERG potassium channel", "result": 29.2, "unit": "%"}
    ]},
    {"smiles": "O=C(O)[C@@H](Cc1cccc(CN(Cc2cccc(C[C@H](C(=O)O)[C@H]3CCNC3)c2)C(=O)c2cccc(C[C@H](C(=O)O)[C@H]3CCNC3)c2)c1)[C@H]1CCNC1", "note": "[Example 5]", "values": [
      {"measurement": "mutagenicity", "setting": "[1]; TA102, +S9, 62 μg/dish", "result": "−"},
      {"measurement": "mutagenicity", "setting": "[1]; TA102, +S9, 185 μg/dish", "result": "−"},
      {"measurement": "mutagenicity", "setting": "[1]; TA102, +S9, 556 μg/dish", "result": "−"},
      {"measurement": "mutagenicity", "setting": "[1]; TA102, +S9, 1667 μg/dish", "result": "−"},
      {"measurement": "mutagenicity", "setting": "[1]; TA102, +S9, 5000 μg/dish", "result": "−"},
      {"measurement": "mutagenicity", "setting": "[1]; TA102, −S9, 62 μg/dish", "result": "−"},
      {"measurement": "mutagenicity", "setting": "[1]; TA102, −S9, 185 μg/dish", "result": "−"},
      {"measurement": "mutagenicity", "setting": "[1]; TA102, −S9, 556 μg/dish", "result": "−"},
      {"measurement": "mutagenicity", "setting": "[1]; TA102, −S9, 1667 μg/dish", "result": "−"},
      {"measurement": "mutagenicity", "setting": "[1]; TA102, −S9, 5000 μg/dish", "result": "−"},
      {"measurement": "bioavailability", "setting": "[2]", "result": 16.8, "unit": "%"},
      {"measurement": "mutagenicity", "setting": "[3]; TA1537, +S9, 62 μg/dish", "result": "−"},
      {"measurement": "mutagenicity", "setting": "[3]; TA1537, +S9, 185 μg/dish", "result": "−"},
      {"measurement": "mutagenicity", "setting": "[3]; TA1537, +S9, 556 μg/dish", "result": "−"},
      {"measurement": "mutagenicity", "setting": "[3]; TA1537, +S9, 1667 μg/dish", "result": "−"},
      {"measurement": "mutagenicity", "setting": "[3]; TA1537, +S9, 5000 μg/dish", "result": "−"},
      {"measurement": "mutagenicity", "setting": "[3]; TA1537, −S9, 62 μg/dish", "result": "−"},
      {"measurement": "mutagenicity", "setting": "[3]; TA1537, −S9, 185 μg/dish", "result": "−"},
      {"measurement": "mutagenicity", "setting": "[3]; TA1537, −S9, 556 μg/dish", "result": "−"},
      {"measurement": "mutagenicity", "setting": "[3]; TA1537, −S9, 1667 μg/dish", "result": "−"},
      {"measurement": "mutagenicity", "setting": "[3]; TA1537, −S9, 5000 μg/dish", "result": "−"},
      {"measurement": "mutagenicity", "setting": "[4]; TA100, +S9, 62 μg/dish", "result": "−"},
      {"measurement": "mutagenicity", "setting": "[4]; TA100, +S9, 185 μg/dish", "result": "−"},
      {"measurement": "mutagenicity", "setting": "[4]; TA100, +S9, 556 μg/dish", "result": "−"},
      {"measurement": "mutagenicity", "setting": "[4]; TA100, +S9, 1667 μg/dish", "result": "−"},
      {"measurement": "mutagenicity", "setting": "[4]; TA100, +S9, 5000 μg/dish", "result": "−"},
      {"measurement": "mutagenicity", "setting": "[4]; TA100, −S9, 62 μg/dish", "result": "−"},
      {"measurement": "mutagenicity", "setting": "[4]; TA100, −S9, 185 μg/dish", "result": "−"},
      {"measurement": "mutagenicity", "setting": "[4]; TA100, −S9, 556 μg/dish", "result": "−"},
      {"measurement": "mutagenicity", "setting": "[4]; TA100, −S9, 1667 μg/dish", "result": "−"},
      {"measurement": "mutagenicity", "setting": "[4]; TA100, −S9, 5000 μg/dish", "result": "−"},
      {"measurement": "inhibition at 0.3 µM", "setting": "hERG potassium channel", "result": -0.06, "unit": "%"},
      {"measurement": "inhibition at 1 µM", "setting": "hERG potassium channel", "result": 3.47, "unit": "%"},
      {"measurement": "inhibition at 3 µM", "setting": "hERG potassium channel", "result": 3.67, "unit": "%"}
    ]}
  ]
}
